Measurements as given in ChEMBL document CHEMBL1128916, “Phosphoramidate derivatives of d4T with improved anti-HIV efficacy retain full activity in thymidine kinase-deficient cells” (Bioorg Med Chem Lett, 1996).

Assays:
Settings in all cases: Homo sapiens
CCRF-CEM [1] = assay: Compound was evaluated for the inhibition of HIV replication using HIV-1 infected CEM cells.; format: functional, cell-based
CCRF-CEM [2] = assay: Compound was evaluated for the inhibition of HIV replication using HIV-2 infected CEM cells.; format: functional, cell-based
CCRF-CEM [3] = assay: Compound was evaluated for the inhibition of HIV replication using HIV-2 infected CEM-TK- cells.; format: functional, cell-based
CCRF-CEM [4] = assay: Compound was evaluated for the cytotoxic concentration to inhibit HIV replication in CEM cells.; format: functional

Row | Compound | EC50 (CCRF-CEM [1]) [nM] | EC50 (CCRF-CEM [2]) [nM] | EC50 (CCRF-CEM [3]) [nM] | CC50 (CCRF-CEM [4]) [nM]
1 | COC(=O)C(C)NP(=O)(OC[C@@H]1C=C[C@H](n2cc(C)c(=O)[nH]c2=O)O1)Oc1ccccc1 (stereo partly specified) | 85 | 102 | 75 | > 100000
2 | Cc1cn(C2C=CC(COP(=O)(NC(C)C(=O)OCc3ccccc3)Oc3ccccc3)O2)c(=O)[nH]c1=O (stereo unspecified) | 22 | 39 | 60 | 52000
3 | Cc1cn([C@H]2C=C[C@@H](CO)O2)c(=O)[nH]c1=O [STAVUDINE] | 160 | 270 | 25000 | > 100000
4 | Cc1cn([C@H]2C[C@H](N=[N+]=[N-])[C@@H](CO)O2)c(=O)[nH]c1=O [ZIDOVUDINE] | 5 | 8 | > 100000 | > 100000
